Measured values from US12152255B2, “ω-Transaminase mutant obtained by DNA synthetic shuffling combined mutation and use” (priority 2020, dated 2024).
Read-outs that look alike come from different tables or passages of the source.

Key:
[1] = biological target: Aspergillus terreus ω-transaminase mutant F115L-H210N-E253A-I295V (parent SEQ ID NO: 1; gene SEQ ID NO: 5) (Aspergillus terreus, UniProt Q0C8G1); assay: Kinetic parameters, transamination (acetophenone formation at 245 nm), F115L-H210N-E253A-I295V; format: biochemical
[2] = biological target: Aspergillus terreus ω-transaminase mutant F115L-H210N-M150C-M280C (parent SEQ ID NO: 1; gene SEQ ID NO: 3) (Aspergillus terreus, UniProt Q0C8G1, E253A/F115L/H210N/M150C/M280C); assay: Kinetic parameters, transamination (acetophenone formation at 245 nm), F115L-H210N-M150C-M280C; format: biochemical; settings: phosphate buffer pH 8.0, 0.1 mM PLP
[3] = biological target: Aspergillus terreus ω-transaminase mutant F115L-H210N (parent SEQ ID NO: 1; gene SEQ ID NO: 4) (Aspergillus terreus, UniProt Q0C8G1, D231A/F115L/H210N); assay: Kinetic parameters, transamination (acetophenone formation at 245 nm), F115L-H210N; format: biochemical; settings: phosphate buffer pH 8.0, 0.1 mM PLP
[4] = biological target: Aspergillus terreus ω-transaminase mutant I77L-F115L-E133A-H210N-N245D (parent SEQ ID NO: 1; gene SEQ ID NO: 6) (Aspergillus terreus, UniProt Q0C8G1, D224K/E133A/F115L/H210N/I77L/N245D); assay: Kinetic parameters, transamination (acetophenone formation at 245 nm), I77L-F115L-E133A-H210N-N245D; format: biochemical; settings: phosphate buffer pH 8.0, 0.1 mM PLP
[5] = biological target: Aspergillus terreus ω-transaminase mutant I77L-Q97E-F115L-L118T-E253A-G292D (parent SEQ ID NO: 1; gene SEQ ID NO: 7) (Aspergillus terreus, UniProt Q0C8G1, D224A/E253A/F115L/G292D/I77L/L118T/Q97E); assay: Kinetic parameters, transamination (acetophenone formation at 245 nm), I77L-Q97E-F115L-L118T-E253A-G292D; format: biochemical; settings: phosphate buffer pH 8.0, 0.1 mM PLP
[6] = biological target: Aspergillus terreus ω-transaminase mutant I77L-E133A-N245D-G292D (parent SEQ ID NO: 1; gene SEQ ID NO: 8) (Aspergillus terreus, UniProt Q0C8G1, E133A/G292D/I77L/N245D); assay: Kinetic parameters, transamination (acetophenone formation at 245 nm), I77L-E133A-N245D-G292D; format: biochemical; settings: phosphate buffer pH 8.0, 0.1 mM PLP
[7] = system: Aspergillus terreus ω-transaminase mutant H210N-N245D-E253A-G292D (parent SEQ ID NO: 1; gene SEQ ID NO: 9); assay: Kinetic parameters, transamination (acetophenone formation at 245 nm), H210N-N245D-E253A-G292D; format: biochemical; settings: phosphate buffer pH 8.0, 0.1 mM PLP
[8] = biological target: T1, Aspergillus terreus ω-transaminase, wild type (WT-ATA), SEQ ID NO: 1 (Aspergillus terreus, UniProt Q0C8G1); assay: Kinetic parameters, transamination (acetophenone formation at 245 nm), WT-ATA; settings: phosphate buffer pH 8.0, 0.1 mM PLP
T1 sequence (Q0C8G1 1-325): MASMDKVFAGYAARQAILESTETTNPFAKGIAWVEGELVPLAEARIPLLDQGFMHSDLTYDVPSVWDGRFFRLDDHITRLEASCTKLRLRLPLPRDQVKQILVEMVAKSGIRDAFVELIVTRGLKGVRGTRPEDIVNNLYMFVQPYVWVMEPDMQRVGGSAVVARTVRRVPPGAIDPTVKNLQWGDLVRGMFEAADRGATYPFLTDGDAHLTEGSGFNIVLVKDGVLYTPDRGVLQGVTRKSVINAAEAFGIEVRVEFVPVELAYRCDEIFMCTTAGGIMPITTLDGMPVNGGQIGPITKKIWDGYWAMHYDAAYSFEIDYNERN

[9] = system: CC(=O)C(=O)O; assay: Kinetic parameters, transamination (acetophenone formation at 245 nm), I77L-E133A-N245D-G292D; format: biochemical, Aspergillus terreus; settings: other: I77L-E133A-N245D-G292D, phosphate buffer pH 8.0, 0.1 mM PLP
[10] = system: C[C@@H](N)c1ccccc1; assay: as above; format: biochemical, Aspergillus terreus; settings: other: I77L-E133A-N245D-G292D, phosphate buffer pH 8.0, 0.1 mM PLP
[11] = substrate: CC(=O)C(=O)O; assay: purified protein, by the assay type; settings: other: WT-ATA, phosphate buffer pH 8.0, 0.1 mM PLP
[12] = phosphate buffer pH 8.0, 0.1 mM PLP

Molecule: C[C@@H](N)c1ccccc1 [α-MBA, (R)-(+)-α-methylbenzylamine]
- Km ([1]; read-out: Km^α-MBA, phosphate buffer pH 8.0, 0.1 mM PLP): 800 ± 30 µM

Molecule: CC(=O)C(=O)O [pyruvate, pyruvic acid]
- Kcat^pyruvate [2]: 3.87 ± 0.03 s⁻¹
- kcat/Km^pyruvate [2]: 1450 M⁻¹ s⁻¹
- Kcat^pyruvate [3]: 2.55 ± 0.01 s⁻¹
- kcat/Km^pyruvate [3]: 1710 M⁻¹ s⁻¹
- Kcat^pyruvate [1, 12]: 3.17 ± 0.01 s⁻¹
- kcat/Km^pyruvate [1, 12]: 2030 M⁻¹ s⁻¹
- Km ([1]; read-out: Km^pyruvate, phosphate buffer pH 8.0, 0.1 mM PLP): 1560 ± 70 µM
- Kcat^pyruvate [4]: 1.96 ± 0.03 s⁻¹
- kcat/Km^pyruvate [4]: 990 M⁻¹ s⁻¹
- Kcat^pyruvate [5]: 2.76 ± 0.01 s⁻¹
- kcat/Km^pyruvate [5]: 1330 M⁻¹ s⁻¹
- Kcat^pyruvate [6]: 3.05 ± 0.02 s⁻¹
- kcat/Km^pyruvate [6]: 1180 M⁻¹ s⁻¹
- Kcat^pyruvate [7]: 1.89 ± 0.03 s⁻¹
- kcat/Km^pyruvate [7]: 3010 M⁻¹ s⁻¹
- Kcat^pyruvate [8]: 0.50 ± 0.01 s⁻¹
- kcat/Km^pyruvate [8]: 2220 M⁻¹ s⁻¹

Molecule: Aspergillus terreus ω-transaminase mutant I77L-E133A-N245D-G292D (parent SEQ ID NO: 1; gene SEQ ID NO: 8) (Aspergillus terreus NIH2624; E133A/G292D/I77L/N245D)
- Km [9]: 2590 ± 20 µM
- Km [10]: 840 ± 50 µM

B1: Aspergillus terreus ω-transaminase, wild type (WT-ATA), SEQ ID NO: 1 (Aspergillus terreus NIH2624) (protein)
chain: T1 sequence (Q0C8G1 1-325)
- Km [11]: 230 ± 20 µM
